Source: US12023336B2, “Antiviral drug compounds and composition thereof” (priority 2018, dated 2024)

Key:
HIV-1NL4.3 [1] = type: cell-based; details: for IC50: HIV-1NL4.3 0.5 MOI, p24 ELISA 72 h post infection
Description: Cells were then treated with molecules at different concentrations.

CEM-GFP cells = test: MTT cell viability assay in CEM-GFP cells; type: cell-based; details: concentration at which cell viability was 50%
Description: (a-b) CEM-GFP cells were treated with different concentrations of MTX-HYD and MTX and cytotoxicity was determined by MTT cell viability assay. […] (c-d) CEM-GFP cells were infected with 0.5 MOI (Multiplicity of infection) of HIV-1NL4.3 virus in presence of MTX-HYD or MTX. 72-hours post infection supernatant was collected and virus production was determined by p24 antigen capture ELISA.
(§1) Cytotoxicity of MTX-HYD and MTX and their analogues was determined by MTT cell proliferation assay kit, (Roche, Germany) as described earlier. Briefly, cells were seeded at the density of 25,000 cells/well in 96 well plate containing 100 μL of RPMI. Molecules at different concentration was added to the media and incubated in humidified CO2 incubator. Untreated cells were taken as negative control and DMSO treated cells were taken as vehicle control. 48-hours post incubation, 10 μL of MTT (5 mg/mL) was added in each well in dark and incubated at 37° C. for the formation of formazan crystals. 4-hours post incubation, the crystals were dissolved using 100 μL isopropanol and the absorbance was read at 570 nm.

HIV-1NL4.3 [2] = system: HIV-1NL4.3
Description: 72-hours post infection supernatant was collected and virus production was determined by p24 antigen capture ELISA.
as §1
(§2) Cells were then treated with molecules at different concentrations. Untreated cells were taken as negative control and DMSO treated cells were taken as vehicle control.

[3] = system: different isolates of HIV-1; test: Anti-HIV activity against different isolates of HIV-1 in CEM-GFP cells and hPBMCs, p24 ELISA; type: cell-based
Description: as §2

HIV-1 integrase = target: T1, HIV-1 integrase (Human immunodeficiency virus type 1 group M subtype B, UniProt P04585); test: Cell free assay for HIV-1 Integrase activity; type: biochemical; details: 100 nM
T1 construct: HIV-1 integrase enzyme; purchased XpressBio, USA
Description: (§3) MTX-HYD (100 nM) was tested on viral enzymes Reverse Transcriptase (a), Integrase (b) and Protease (c) in an in vitro cell free assay system. Nevirapine (NVP) (500 nM), Raltegravir (RLT) (1 μM), and Indinavir (IND) (500 nM) were used as the control inhibitors of RT, IN, and PR respectively. Untreated wells (UNT) were considered as negative controls. […] 72-hours post-infection virus production was determined in supernatant by p24 antigen capture ELISA (n=3).
MTX-HYD was tested for its effect, if any, on HIV-1 Integrase enzyme using HIV-1 integrase assay kit (XpressBio, USA) according to manufacturer's protocol. Briefly, biotin coated 5′ Donor Strand (DS) was loaded on to streptavidin coated wells and incubated at 37° C. 30-minutes post incubation, wells were washed and unattached DS was removed. After washing, HIV-1 integrase enzyme and Transfer Strand (TS) were added to the wells in presence of MTX-HYD and incubated at 37° C. Raltegravir treated wells were taken as positive controls whereas untreated wells were taken as negative control and DMSO treated wells were taken as vehicle control. 30-minutes post incubation, wells were washed and 100 μL/well TMB substrate was added and incubated for […] at room temperature. 100 μL/well TMB stop solution was added and absorbance was measured at 450 nm.

[4] = MTT cytotoxicity in different cell types (CEM-GFP, Jurkat J6, U937, hPBMCs); type: cell-based; details: human; all the cell types tested (CEM-GFP, Jurkat J6, U937, hPBMCs)
From the text: FIG. 2. depicts that MTX-HYD has similar cytotoxicity profile in different cell types. […] Untreated and DMSO treated cells were taken as controls.

HIV-1 protease = target: T2, HIV-1 protease (Human immunodeficiency virus type 1 group M subtype B, UniProt P04585); test: Cell free assay for HIV-1 Protease activity; type: biochemical; details: 100 nM
T2 construct: HIV-1 protease enzyme; purchased Biovision, USA
Description: as §3
Effect of MTX-HYD on HIV-1 Protease enzyme was determined using HIV-1 Protease Activity Assay Kit, Fluorometric (Biovision, USA) according to manufacturer's protocol. Briefly, in a single step reaction, HIV-1 protease enzyme was diluted in reaction buffer and 10 nmol/well was loaded in 96 well plate in presence or absence of MTX-HYD (100 nM). Indinavir (IND) (500 nM) treated wells were taken as positive control and untreated wells were considered as negative control. 15-minutes post addition, Fluorescence was measured using Molecular Devices M5 at Ex/Em=330/450 nm (FIG. 6).

HIV-1NL4.3 [5] = test: microbe, parasite or virus in culture; type: cell-based; details: Human immunodeficiency virus 1; 10 μM; HIV-1NL4.3 0.1 MOI; TZM-bl cells; luminescence 48 h; read-out: % Inhibition at 10 μM Concentration
Description: TZM-bl cells were seeded at the density of 12,000-15,000 cells/well of 96 well plate with 100 μL DMEM (with 10% FBS) in each well. 12-hours post seeding, the media was replaced with fresh DMEM containing HTV-1NL4.3 at 0.1 MOI and cells were treated with different molecules independently at 10 μM working concentration. Cells were incubated in humidified CO2 incubator for 4-hours. After incubation, the media was replaced and cells were washed twice with incomplete DMEM and 100 μL of complete DMEM was added in each wells along with the molecules of interest and incubated at 37° C. in humidified CO2 incubator. 48-hours post incubation, the media was removed and cells were washed twice with 100 μL of 1×PBS. After washing, cells were lysed using cell culture lysis reagent and Steady-Glo substrate was added at 1:1 ration in each well. Luminescence was measured using Molecular Devices M5 (Table 2). % Inhibition was calculated using following formula and plotted.
[formula] (RLU=Relative Luminescence Unit)

NF-kB pathway = test: Immunoblotting of IkB phosphorylation and p65 in HIV-1NL4.3 infected CEM-GFP cells; type: cell-based; details: 100 nM, 24, 48, 72 h post infection
Description: (a) CEM-GFP cells were infected with 0.5 MOI of HIV-1NL4.3 in presence or absence of MTX-HYD (100 nM). Cells were harvested at different time points (24 h, 48 h and 72 h) post-infection. Phosphorylation of IxB was analysed by immunoblotting. (c) CEM-GFP cells were infected with 0.5MOI of HIV-1NL4.3 in presence or absence of MTX-HYD (100 nM) and nuclear cytoplasmic fractions were prepared using NE-PER nuclear-cytoplasmic fractionation kit. p65 levels in both cytoplasm and nucleus were analyzed by immunoblotting. (b and d) Densitometric analysis of immunoblots using QuantityOne software (n=3).

[6] = target: T3, HIV-1 reverse transcriptase (Human immunodeficiency virus type 1 group M subtype B, UniProt P04585); test: RNA dependent DNA polymerase activity assay of HIV-1 RT (RDDP assay); type: biochemical; details: 100 nM; cell free
T3 construct: recombinant HIV-1 reverse transcriptase enzyme; purchased Roche, Germany
Description: as §3
Effect of MTX-HYD and MTX on RNA dependent DNA polymerase activity of HIV-1 RT enzyme was tested with HIV-1 reverse transcriptase colorimetric assay kit (Roche, Germany) according to manufacturer's protocol. Briefly, 0.5 ng of recombinant HIV-1 reverse transcriptase enzyme in reaction buffer in presence or absence of MTX-HYD were incubated at room temperature for 5-10 min. Nevirapine (500 nM) treated wells were taken as positive control whereas untreated wells were taken as negative control and DMSO treated wells were taken as vehicle control. The reaction mixture containing Poly rA/OligodT (template/primers) and biotin or digoxigenin labelled dUTP nucleotide mixture was added to initiate the reverse transcription at 37° C. for 12-16 hours. […] ABTS substrate was then added to observe the colour reaction, which was read at 405 nm.

Compound: COC(=O)CCC(NC(=O)c1ccc(N(C)Cc2cnc3nc(N)nc(N)c3n2)cc1)C(=O)OC (stereo not shown) [MTX-methyl-d3-Dimethyl Ester, Methotrexate-methyl-d3-Dimethyl ester]
- IC50 (HIV-1NL4.3 [1]; CEM-GFP cells): 0.0099 ± 0.00151 µM
- CC50 (CEM-GFP cells): 47.3 ± 1.51 µM

Compound: [2H]C([2H])([2H])N(Cc1cnc2nc(N)nc(N)c2n1)c1ccc(C(=O)NC(CCC(=O)OC)C(=O)OC)cc1 (stereo not shown) [MTX-methyl-d3-Dimethyl Ester, Methotrexate-methyl-d3-Dimethyl ester]
- inhibition of replication of HIV-1NL4.3 (HIV-1NL4.3 [1]; 100 nM, CEM-GFP (FIG. 9)): inhibits replication of HIV-1NL4.3
- TI (Therapeutic index = CC50/IC50) (HIV-1NL4.3 [1]; CEM-GFP cells): 4781.81
- therapeutic index compared with MTX-HYD (HIV-1NL4.3 [1]; CEM-GFP cells, HIV-1NL4.3): higher therapeutic index than MTX-HYD
- therapeutic index (TI) in hPBMCs (HIV-1NL4.3 [2]; HIV-1NL4.3 0.5 MOI): significantly high therapeutic index (TI)
- inhibition of HIV-1NL4.3 replication in primary cells (HIV-1NL4.3 [2]; hPBMCs): with high efficiency
- anti-HIV activity across virus isolates ([3]; 25 nM, 0.5 MOI of different isolates): not virus isolate specific phenomena
- Therapeutic Index compared with MTX-HYD, other virus isolates ([3]; HIV-1IndieC, HIV-1IIIB, HIV-1ADA, HIV-189.6): higher Therapeutic Index (TI) than Methotrexate Hydrate (MTX-HYD)

Compound: CN(Cc1cnc2nc(N)nc(N)c2n1)c1ccc(C(=O)N[C@@H](CCC(=O)O)C(=O)O)cc1 [MTX-methyl-d3]
- IC50 (HIV-1NL4.3 [1]; CEM-GFP cells): 0.0421 ± 0.00384 µM
- CC50 (CEM-GFP cells): 46.4 ± 1.08 µM

Compound: CN(Cc1cnc2nc(N)nc(N)c2n1)c1ccc(C(=O)N[C@@H](CCC(=O)O)C(=O)O)cc1 [Methotrexate Hydrate]
- effect on Integrase (HIV-1 integrase): does not target viral enzymes
- CC50 at 48 h [4]: 50 to 75 µM
- effect on Protease (HIV-1 protease): does not target viral enzymes
- inhibition at 10 µM (HIV-1NL4.3 [5]): 98.5%
- stage of virus life cycle at which it acts (HIV-1NL4.3 [1]; 100 nM, treated at different stages of virus infection, CEM-GFP): works at an early stage of the life cycle
- anti-HIV potential better than MTX (HIV-1NL4.3 [1]; versus MTX (FIG. 1)): ~10 fold
- IkB phosphorylation (NF-kB pathway): may inhibit IkB phosphorylation
- anti-HIV activity across virus isolates and viral loads ([3]; 0.5 MOI of different isolates, 0.01, 0.1 and 1 MOI of HIV-1NL4.3): not virus isolate and viral load dependent phenomena
- effect on Reverse Transcriptase [6]: does not target viral enzymes

Compound: MTX-d3 heptaglutamate
- IC50 (HIV-1NL4.3 [1]; CEM-GFP cells): 0.0779 ± 0.00242 µM
- CC50 (CEM-GFP cells): 40.5 ± 3.43 µM
